Read-outs that look alike come from different tables or passages of the source.
How the values were obtained:
[1] = Intravenous bioavailability in rats, plasma d-amphetamine by ELISA; details: relative to amphetamine
[2] = Kitchen tests: release of amphetamine by water, acid, base and heat; details: heated to boiling for 20-60 minutes
[3] = Oral pharmacokinetics in rats, plasma d-amphetamine by ELISA; details: Oral, relative to amphetamine (first value where two are given)
[4] = cited from earlier work; for Blood level: 12.5 mg dose
[5] = Oral bioavailability of hydrocodone conjugates in rats, LC/MS/MS; details: male, Sprague-Dawley, rat, plasma, po
[6] = Intranasal bioavailability of hydrocodone conjugates in rats, LC/MS/MS; details: male, Sprague-Dawley, rat, plasma, 1 mg/kg
[7] = Intravenous bioavailability of hydrocodone conjugates in rats, LC/MS/MS
[8] = Oral plasma levels of oxycodone conjugates in rats, ELISA; details: oral 2 mg/kg
[9] = Intranasal plasma levels of oxycodone conjugates in rats, ELISA; details: intranasal 2 mg/kg
[10] = Intranasal bioavailability of oxycodone conjugates in rats, LC/MS/MS; details: 1 mg/kg dose
[11] = Intravenous bioavailability of oxycodone conjugates in rats, LC/MS/MS; details: 1 mg/kg dose; for AUC 0-1 h / AUC Percent OC / Cmax / Cmax Percent OC: oxycodone plus oxymorphone
[12] = intravenous, 1 mg/kg hydrocodone base content
[13] = male, Sprague-Dawley, rat, plasma, iv, 1 mg/kg

CC(Cc1ccccc1)NC(=O)C(N)Cc1ccccc1 (centres unmarked) [F-Amp]
Percent AUC [1]: 87%
Percent Cmax [1]: 89%

CC(Cc1ccccc1)NC(=O)CNC(=O)CNC(=O)CN (centres unmarked) [Gly3-Amp, 2-Amino-N-({[(1-methyl-2-phenyl-ethylcarbomyl)-methyl]-carbomyl}-methyl)-acetamide]
amphetamine detected after treatment: Baking Powder [2]: 0%
amphetamine detected after treatment: Baking Soda [2]: 0%
amphetamine detected after treatment: Tap Water [2]: 0%
amphetamine detected after treatment: Vinegar [2]: 0%

CC(Cc1ccccc1)NC(=O)C(O)C(O)C(O)C(O)CO (centres unmarked) [Gulonate-Amp]
Percent AUC [3]: 1%
Percent Cmax [3]: 1%
Percent AUC [1]: 3%
Percent Cmax [1]: 5%

COc1ccc2c3c1O[C@H]1C(=O)CC[C@H]4[C@@H](C2)N(C)CC[C@]314 [Hydrocodone, reference compound]
Therapeutic plasma concentration ([4]; in vivo): 1 to 30 ng/mL
Toxic plasma concentration ([4]; in vivo): greater than 100 ng/mL
AUC ([5]; 1 mg/kg): 45.1 ng·h/mL
Cmax ([5]; 1 mg/kg): 114 ng/mL
concentration at 0 h ([5]; 1 mg/kg): 0 ng/mL
concentration at 0.1 h ([5]; 1 mg/kg): 114 ng/mL
concentration at 0.5 h ([5]; 1 mg/kg): 14.3 ng/mL
concentration at 1 h ([5]; 1 mg/kg): 7 ng/mL
concentration at 2 h ([5]; 1 mg/kg): 2.6 ng/mL
concentration at 4 h ([5]; 1 mg/kg): 1 ng/mL
AUC ([5]; 2 mg/kg): 38.2 ng·h/mL
Cmax ([5]; 2 mg/kg): 60.3 ng/mL
concentration at 0 h ([5]; 2 mg/kg): 0 ng/mL
concentration at 0.1 h ([5]; 2 mg/kg): 60.3 ng/mL
concentration at 0.5 h ([5]; 2 mg/kg): 15.6 ng/mL
concentration at 1 h ([5]; 2 mg/kg): 12.9 ng/mL
concentration at 2 h ([5]; 2 mg/kg): 3.4 ng/mL
concentration at 4 h ([5]; 2 mg/kg): 1.3 ng/mL
AUC ([5]; 5 mg/kg): 234 ng·h/mL
Cmax ([5]; 5 mg/kg): 629 ng/mL
concentration at 0 h ([5]; 5 mg/kg): 0 ng/mL
concentration at 0.1 h ([5]; 5 mg/kg): 629 ng/mL
concentration at 0.5 h ([5]; 5 mg/kg): 74.3 ng/mL
concentration at 1 h ([5]; 5 mg/kg): 80.8 ng/mL
concentration at 2 h ([5]; 5 mg/kg): 18.4 ng/mL
concentration at 4 h ([5]; 5 mg/kg): 4.9 ng/mL
AUC ([5]; 25 mg/kg): 419 ng·h/mL
Cmax ([5]; 25 mg/kg): 409 ng/mL
concentration at 0 h ([5]; 25 mg/kg): 0 ng/mL
concentration at 0.1 h ([5]; 25 mg/kg): 409 ng/mL
concentration at 0.5 h ([5]; 25 mg/kg): 154 ng/mL
concentration at 1 h ([5]; 25 mg/kg): 86.2 ng/mL
concentration at 2 h ([5]; 25 mg/kg): 83.3 ng/mL
concentration at 4 h ([5]; 25 mg/kg): 57.8 ng/mL
AUC ([6]; iv): 74.7 ng·h/mL
Cmax ([6]; iv): 543 ng/mL
concentration at 0 min ([6]; other: intranasal): 0 ng/mL
concentration at 5 min ([6]; other: intranasal): 441 ng/mL
concentration at 15 min ([6]; other: intranasal): 543 ng/mL
concentration at 30 min ([6]; other: intranasal): 227 ng/mL
concentration at 60 min ([6]; other: intranasal): 96 ng/mL
HC (hydrocodone) AUC, Percent relative to hydrocodone bitartrate [7, 12]: 100%
HC (hydrocodone) Cmax, Percent relative to hydrocodone bitartrate [7, 12]: 100%
AUC [7, 13]: 24.1 ng·h/mL
Cmax [7, 13]: 43 ng/mL

C[C@@H](Cc1ccccc1)NC(=O)[C@@H](N)CCCCN [K-Amp]
Percent AUC [3]: 98%
Percent Cmax [3]: 55%
Percent AUC [1]: 3%
Percent Cmax [1]: 3%

COc1ccc2c3c1O[C@H]1C(OC(=O)[C@@H](NC(=O)[C@@H]4CCCN4C(=O)[C@@H](N)CCC(=O)O)C(C)C)=CC[C@@]4(OC(=O)[C@@H](NC(=O)[C@@H]5CCCN5C(=O)[C@@H](N)CCC(=O)O)C(C)C)[C@@H](C2)N(C)CC[C@]314 [[Glu-Pro-Val]2-OC]
% AUC [8]: 142%
% Cmax [8]: 134%
% AUC [9]: 56%
% Cmax [9]: 65%

COc1ccc2c3c1O[C@H]1C(OC(=O)[C@@H](NC(=O)[C@H](Cc4ccc(O)cc4)NC(=O)[C@@H](N)CCC(=O)O)C(C)C)=CC[C@@]4(OC(=O)[C@@H](NC(=O)[C@H](Cc5ccc(O)cc5)NC(=O)[C@@H](N)CCC(=O)O)C(C)C)[C@@H](C2)N(C)CC[C@]314 [[Glu-Tyr-Val]2-OC]
% AUC [8]: 115%
% Cmax [8]: 103%
% AUC [9]: 18%
% Cmax [9]: 20%

COc1ccc2c3c1O[C@H]1C(OC(=O)[C@@H](NC(=O)[C@H](CCC(=O)O)NC(=O)CN)C(C)C)=CC[C@@]4(OC(=O)[C@@H](NC(=O)[C@H](CCC(=O)O)NC(=O)CN)C(C)C)[C@@H](C2)N(C)CC[C@]314 [[Gly-Glu-Val]2-OC]
% AUC [8]: 93%
% Cmax [8]: 61%
% AUC [9]: 29%
% Cmax [9]: 48%

COc1ccc2c3c1O[C@H]1C(OC(=O)[C@@H](NC(=O)[C@H](Cc4ccc(O)cc4)NC(=O)CN)C(C)C)=CC[C@@]4(OC(=O)[C@@H](NC(=O)[C@H](Cc5ccc(O)cc5)NC(=O)CN)C(C)C)[C@@H](C2)N(C)CC[C@]314 [[Gly-Tyr-Val]2-OC]
% AUC [8]: 92%
% Cmax [8]: 99%
% AUC [9]: 56%
% Cmax [9]: 54%

CC[C@H](C)[C@H](N)C(=O)N[C@@H](Cc1ccc(O)cc1)C(=O)N[C@H](C(=O)OC1=CC[C@@]2(OC(=O)[C@@H](NC(=O)[C@H](Cc3ccc(O)cc3)NC(=O)[C@@H](N)[C@@H](C)CC)C(C)C)[C@H]3Cc4ccc(OC)c5c4[C@@]2(CCN3C)[C@H]1O5)C(C)C [[Ile-Tyr-Val]2-OC]
% AUC [8]: 71%
% Cmax [8]: 82%
% AUC [9]: 3%
% Cmax [9]: 4%

COc1ccc2c3c1O[C@H]1C(OC(=O)[C@@H](NC(=O)[C@H](Cc4ccc(O)cc4)NC(=O)[C@@H](N)CC(C)C)C(C)C)=CC[C@@]4(OC(=O)[C@@H](NC(=O)[C@H](Cc5ccc(O)cc5)NC(=O)[C@@H](N)CC(C)C)C(C)C)[C@@H](C2)N(C)CC[C@]314 [[Leu-Tyr-Val]2-OC]
% AUC [8]: 131%
% Cmax [8]: 120%
% AUC [9]: 4%
% Cmax [9]: 5%

COc1ccc2c3c1O[C@H]1C(OC(=O)[C@H](CC(C)C)NC(=O)[C@@H]4CCCN4C(=O)[C@@H]4CCCN4)=CC[C@@]4(OC(=O)[C@H](CC(C)C)NC(=O)[C@@H]5CCCN5C(=O)[C@@H]5CCCN5)[C@@H](C2)N(C)CC[C@]314 [[PPL]2-OC, [PPL]2-Oxycodone]
Oxycodone plus oxymorphone level at 5 Minutes [10]: 1380
Oxycodone plus oxymorphone level at 15 Minutes [10]: 499
Oxycodone plus oxymorphone level at 30 Minutes [10]: 390
Oxycodone plus oxymorphone level at 60 Minutes [10]: 98
AUC Percent OC ([10]; oxycodone plus oxymorphone): 61%
Cmax Percent OC ([10]; oxycodone plus oxymorphone): 65%
Oxycodone plus oxymorphone level at 5 Minutes [11]: 22
Oxycodone plus oxymorphone level at 15 Minutes [11]: 19
Oxycodone plus oxymorphone level at 30 Minutes [11]: 19
Oxycodone plus oxymorphone level at 60 Minutes [11]: 43
AUC 0-1 h [11]: 24 ng·h/mL
AUC Percent OC [11]: 29%
Cmax [11]: 43 ng/mL
Cmax Percent OC [11]: 43%

COc1ccc2c3c1O[C@H]1C(OC(=O)[C@@H](NC(=O)[C@H](CCC(=O)O)NC(=O)[C@@H]4CCCN4)C(C)C)=CC[C@@]4(OC(=O)[C@@H](NC(=O)[C@H](CCC(=O)O)NC(=O)[C@@H]5CCCN5)C(C)C)[C@@H](C2)N(C)CC[C@]314 [[Pro-Glu-Val]2-OC]
% AUC [8]: 90%
% Cmax [8]: 82%
% AUC [9]: 34%
% Cmax [9]: 46%

COc1ccc2c3c1O[C@H]1C(OC(=O)[C@@H](NC(=O)CNC(=O)[C@@H](N)CO)C(C)C)=CC[C@@]4(OC(=O)[C@@H](NC(=O)CNC(=O)[C@@H](N)CO)C(C)C)[C@@H](C2)N(C)CC[C@]314 [[Ser-Gly-Val]2-OC]
% AUC [8]: 90%
% Cmax [8]: 92%
% AUC [9]: 64%
% Cmax [9]: 73%

CC(N)Cc1ccccc1 (centres unmarked) [amphetamine]
Steady-state blood level ([4]; addicts orally consuming an average of 1000 mg per day): 2000 to 3000 ng/mL
Blood level at which peripheral effects (increased heart rate) start ([4]; in vivo): 20 ng/mL
Peak blood concentration ([4]; single oral dose of 10 mg, 2 hours): 35 ng/mL

CN[C@@H](C)Cc1ccccc1 [methamphetamine]
Urine concentration ([4]; 10 mg, first 24 hours): 500-4,000 ng/mL
Blood level ([4]; 6 hours): about 16 ng/mL
Blood level ([4]; 24 hours): about 10 ng/mL
Amphetamine concentration of methamphetamine abusers, average ([4]; abusers): 1,800 ng/mL
Methamphetamine concentration of methamphetamine abusers, average ([4]; abusers): 14,200 ng/mL
Amphetamine concentration of methamphetamine abusers ([4]; abusers, range): 1,000-9,000 ng/mL
Methamphetamine concentration of methamphetamine abusers ([4]; abusers, range): 2,400-33,300 ng/mL
Estimated lethal dose ([4]; adults): 1 g
Estimated lethal dose ([4]; children): 0.1 g
Maximum blood concentration ([4]; single dose of 10 mg, one hour): 30 ng/mL

Oxycodone Bitartrate
Oxycodone plus oxymorphone level at 5 Minutes [10]: 2128
Oxycodone plus oxymorphone level at 15 Minutes [10]: 1003
Oxycodone plus oxymorphone level at 30 Minutes [10]: 688
Oxycodone plus oxymorphone level at 60 Minutes [10]: 278
AUC 0-1 h ([10]; oxycodone plus oxymorphone): 428 ng·h/mL
AUC Percent OC ([10]; oxycodone plus oxymorphone): 100%
Cmax ([10]; oxycodone plus oxymorphone): 2128 ng/mL
Cmax Percent OC ([10]; oxycodone plus oxymorphone): 100%
Oxycodone plus oxymorphone level at 5 Minutes [11]: 99
Oxycodone plus oxymorphone level at 15 Minutes [11]: 104
Oxycodone plus oxymorphone level at 30 Minutes [11]: 94
Oxycodone plus oxymorphone level at 60 Minutes [11]: 51
AUC 0-1 h [11]: 82 ng·h/mL
AUC Percent OC [11]: 100%
Cmax [11]: 99 ng/mL
Cmax Percent OC [11]: 100%

— patent publication US7375083B2, “Pharmaceutical compositions for prevention of overdose or abuse” (Shire LLC, priority 2003, dated 2008)
